# Laboratory results from patent publication US20230393118A1, “DEVICES AND METHODS FOR MONITORING CELLS, TISSUES, OR ORGANS-ON-A-CHIP” (University of Rochester, priority 2020, published 2023).
# What was measured:
# tendon fibroblasts = experiment: Tendon fibroblasts seeded on axially-constrained hydrogel treated with TGF-β1; assay type: cell-based; settings: fibroblasts differentiate into myofibroblasts
# From the text: Subsequently, activation of α-SMA+ve myofibroblasts is evident even after 28 dpi.
# [1] = measured plasma drug concentration or target trough, provided by pharmaceutical makers as general guidelines; cited from earlier work
# [2] = estimated in rodents in the literature; cited from earlier work
# 16HBE cells = experiment: Real-time photonic ring sensor detection of cytokine secretion from 16HBE cells exposed to LPS; assay type: cell-based, human; settings: LPS 1 μg/mL in DMEM, 30 μL/min for 3 hours, 37° C.
# Description: 16HBE cells were seeded on the membrane of the exemplar device and allowed to adhere to the membrane for 3 hours. The device was then connected to a peristaltic pump, which contacted the cells with Dulbecco's Modified Eagles' Medium (DMEM) at a low flow rate (˜30 μL/min) overnight. The next day, the device was set on a temperature-controlled stage (37° C.) and DMEM doped with LPS (at 1 μg/mL) was flowed over the cells (through the top channel) at 30 μL/min for 3 hours. Spectra were measured continuously to observe any shifts in resonance of the photonic ring resonators over time.
# FIG. 1F is a graph with a Y axis showing the wavelength of light resonant in the test and the control ring sensors, with longer wavelengths towards the top, and an X axis showing time in seconds following exposure of the cells to LPS. […]
# FIG. 1G presents graphs showing the results of subtracting the shifts in the […] (indicating non-specific binding) from that of the […] for two cytokines, IL-6 (left graph) and IL-1B (right-hand graph). […] For the reader's attention, it is noted that the scale of the two graphs is different, with much smaller quantities of cytokine being detected in the right-hand graph. […]
compound,measurement,setting,value
TGF-β1: cytokine used to induce myofibroblast differentiation in tendon fibroblasts,α-SMA gene (Acta) expression and hydrogel lateral contraction,tendon fibroblasts,dose-dependent increase
CO[C@H]1C[C@@H]2CC[C@@H](C)[C@@](O)(O2)C(=O)C(=O)N2CCCC[C@H]2C(=O)O[C@H]([C@H](C)C[C@@H]2CC[C@@H](O)[C@H](OC)C2)CC(=O)[C@H](C)/C=C(\C)[C@@H](O)[C@@H](OC)C(=O)[C@H](C)C[C@H](C)/C=C/C=C/C=C/1C [Sirolimus],Target whole blood trough concentrations (plasma concentrations),[1],16 to 24 ng/mL
CO[C@H]1C[C@@H]2CC[C@@H](C)[C@@](O)(O2)C(=O)C(=O)N2CCCC[C@H]2C(=O)O[C@H]([C@H](C)C[C@@H]2CC[C@@H](OCCO)[C@H](OC)C2)CC(=O)[C@H](C)/C=C(\C)[C@@H](O)[C@@H](OC)C(=O)[C@H](C)C[C@H](C)/C=C/C=C/C=C/1C [Everolimus],ED50,[2],~0.1 to 2.38 mg/kg
same,Target whole blood trough concentrations (plasma concentrations),[1],5 to 15 ng/mL
Lipopolysaccharide [LPS],"Time at which secretion of cytokines (IL-6, IL-1β) begins after LPS exposure",16HBE cells,about 70 minutes
